Series [1] concerns human retinal endothelial cells (HREC). Put plainly: PMA-induced HREC network formation in fibrin gel. The following applies: PMA 25 ng/mL, vs PMA control. Format: cell-based. Here is the method:
Prior to the start of the experiment, HREC from Cell Systems were cultured in flask in CS-C complete medium. The tube formation assay was performed in a 96-well plate pre-coated with fibrin gel. HREC were collected from flasks and re-suspended 1% FBS EBM-2 medium. Cells were pre-incubated with the integrin antagonists, echistatin or vehicle control for 30 min before loading onto the fibrin gel. Images were taken at 9 h.
Thrombin solution and fibrinogen solutions were allowed to thaw at room temperature and 37° C. water bath, respectively. Fibrinogen solution at 30 μL was added into the desired number of wells in a 96-well plate. Plate was gently shaken to ensure uniform coverage of fibrinogen solution in the well. Thrombin at 20 μL was added into each well. The plate was gently shaken immediately to ensure the thrombin was mixed well with fibrinogen. The plate was placed at 37° C. overnight to allow the fibrin gel to polymerize.
HREC were trypsinized at about 80% confluence and counted by standard hemocytometer methods. After deactivating trypsin with 5 mL of 10% FBS EBM-2 medium, the cells were centrifuged (800 rpm, 8 min) and re-suspended at 2×10^5 cells/mL in 1% FBS EBM-2 medium
Cells were pre-incubated with integrin compounds or echistatin at 37° C., 5% CO2, and 95% humidity for 30 minutes before mixing with PMA medium. The final concentrations of all agents are shown in the design table. The 100 μL of the cell mixture was added onto the gel and cells were cultured at 37° C., 5% CO2, and 95% humidity. Images were taken at different time points.
The network formation scoring system (a five point-scale)
Each well in one group was given a score and then averaged. Data were expressed as mean±SEM of network formation scores. Statistical analysis was performed using a one-way ANOVA-Dunnett's test in raw data, and p<0.05 was considered statistically significant. Data analysis was performed using statistical analysis software JMP (SAS Institute, Cary, N.C.).

Series [2] has as its system laser-induced CNV in rats. Nature of the series: Laser-induced choroidal neovascularization in rats (CNV area, fluorescein angiography grades). The format is in vivo, Brown Norway rats. The following applies: day 14, 200 μg/eye (echistatin 5 μg, Avastin 125 μg); for Number of lesions in FA grade 1 / Number of lesions in FA grade 2 / Number of lesions in FA grade 3 / Number of lesions in FA grade 4: unobstructed lesions. The method, then: Fifty six male Brown Norway rats, approximately 200-300 grams of body weight and two months of age, were used in this study. This study was performed in two cohorts and only one eye of each rat was used.
The pupils were dilated and then the rats were anesthetized as described in baseline examination. The rats were positioned in front of a slit lamp system (Haag-Streit USA, Mason, Ohio). […] A diode laser (OcuLight TX, IRIDEX, Mountain View, Calif.) was used for photocoagulation (532 nm wavelength, 120 mW power, 50 μm spot size and 0.05 seconds duration). For each right eye, a series of six photocoagulation sites were concentrically placed between the major retinal vessels at equal distance (about two optic discs) around the optic nerve head. […] If a significant retinal or subretinal hemorrhage occurred during the laser photocoagulation, then the left eye was be photocoagulated and used as the experimental eye.
Grade 1 lesions had no hyperfluorescence.
The eyes were collected on day 14 and immediately fixed in 4% paraformaldehyde in PBS (pH 7.4) for one and half hours, and then transferred into cold PBS and kept at 4° C. for further processing.
The incubation was performed in a humidified dark chamber with gentle rotation at 4° C. overnight. On the second day, the retinal pigment epithelium (RPE)-choroidsclera complexes were washed with cold IHC buffer, mounted with ProLong® Gold antifade reagent, covered with circular cover glass, and sealed with clear nail polish. Fluorescent images were collected with a confocal microscope (FluoView FV 1000 confocal microscope, Olympus, Center Valley, Pa.) and a 4×, 0.16 numerical aperture objective lens. […] The laser sites were identified by merging images of the green (phalloidin labeling RPE) and the red (isolectin IB4 labeling CNV) channels. CNV complexes were identified using the red channel (isolectin), and their areas were quantified using the FluoView software (Version 1.7a).
Average FA scores and areas of CNV complexes in each group were presented as mean±SEM, unless otherwise indicated. They were analyzed using a one-way ANOVA followed by a Tukey-Kramer test after Box-Cox transformations. All statistics were performed utilizing the statistical analysis software JMP (SAS Institute, Cary, N.C.). p values ≦0.05 were considered statistically significant.

In series [3] the test system is human retinal endothelial cells (HREC). Put plainly: Testing 7: VEGF-induced HREC proliferation (MTS assay), integrin antagonists and Lucentis alone and in combination. The format is cell-based. To be noted: study II; compound 1 nM; Lucentis 1 ng/mL. Here is the method: HREC were first cultured overnight in a 96-well plate coated with fibronectin. The next day medium containing different agents as shown in Tables 14 and 15 was pre-incubated for 1 hour before being added into appropriate wells. The cells were cultured at 37° C., 5% CO2, and 95% humidity for another 3 days. After that, cell proliferation was estimated by the MTS assay. In the first study we used VEGF 10 ng/mL (about EC80 in study PH08169), Lucentis® 1 ng/mL (about EC25 in study PH09038) and 5 doses of BOL-303055-X. Normal IgG (1 ng/ml) was also added to groups containing no Lucentis®. All groups contained the same amount of 0.1% DMSO. In the second study, all five compounds (BOL-303049-X, BOL-303050-X, BOL-303051-X, BOL-303054-X and BOL-303055-X) were tested at 1 nM with other conditions remaining the same.
A 96-well plate was coated with human fibronectin (10 μg/mL) for 5 hours at 37° C. HREC were washed with HBSS buffer once, tripsinized and re-suspended in 10% FBS CS-C medium at 18,000 cells/mL. Cells (200 μL) were added to the plate and cultured overnight at 37° C., 5% CO2, and 95% humidity. Next day, the cells were serum-starved for 2 hours.
For study I, VEGF at 10 ng/mL, Lucentis® at 1 ng/mL and BOL-303055-X at 0.1, 0.3, 1, 3 and 10 nM were prepared in 1% FBS CS medium as shown in Table 14. Normal IgG (1 ng/mL) were added to groups containing no Lucentis®. All medium solutions were incubated for 1 hour at 37° C. After carefully medium was aspirated, 200 μL of the medium containing different agents were then added into appropriate wells. The cells were cultured for another 3 days. For the study II as shown in the Table 15, five compounds were tested at 1 nM with other conditions remaining the same as study I.
At the end of incubation, the medium was carefully aspirated from cells and 120 μl of MTS working solution was added into all wells including blank wells (without cells). The plates were incubated at 37° C., 5% CO2, and 95% humidity for 1 hour and then read by a plate reader at 490 nm wavelength.
Median optical density (OD) was generated from different groups. Data were expressed as mean±SEM of the OD values. Statistical analysis was performed using three-way ANOVA after Box-Cox transformations, and p<0.05 was considered statistically significant. To evaluate whether the effects of the combinations were either synergistic or additive, net inhibitions were calculated by subtracting the basal levels in the presence of VEGF from the individual treatments (Lucentis® and Integrin blockers) and the combinations. […] Data analysis was performed utilizing the statistical analysis software JMP (SAS Institute, Cary, N.C.).
Background: Tetrazolium assays rely on reduction of a dye to a coloured formazan, in cell work by metabolically active cells.

Series [4] is described as follows: Ocular clinical findings in rats 14 days after intravitreal injection. The following applies: for Intraocular inflammation and retinal vascular congestion: Day 14 after intravitreal injection.
Experimental: The anterior segment of the eye was examined using a slit-lamp biomicroscopy for excluding any animals with abnormalities that might interfere with the study. Fundus photography and fluorescein angiography (FA) were performed to document the health of the retina and the ocular circulation using a TRC 50EX fundus camera (Topcon). For FA, 10% sodium fluorescein was injected intravenously (50 mg/kg of body weight) through the tail vein or the vein under the incisor before the procedure.
Immediately after placement of laser photocoagulation, the experimental eyes received an intravitreal injection of either a compound or a vehicle as described in Table 5. Following the disinfection of ocular surface with 5% betadine and 0.9% saline solutions, the injections were performed with aid of a surgical microscope using 0.3 mL syringes with a 31-gauge ½-inch long needle (Ultra-Fine II™ Insulin syringe, BD, Franklin Lakes, N.J.).
Two weeks after photocoagulation, all rats were examined under anesthesia and pupil dilation with slit-lamp biomicroscopy, fundus photography and FA as described in the baseline examination.
The test system of series [5] is human retinal endothelial cells (HREC). Nature of the series: Testing 5: VEGF-induced HREC proliferation (MTS assay), echistatin and Avastin alone and in combination. The format is cell-based. The following applies: echistatin 2 nM. The method, then: HREC were first cultured overnight in a 96-well plate coated with fibronectin. The next day, cells were serum-starved for 2 h before treatment. Medium containing different agents as shown in table below was pre-incubated for 1 h before being added to cells. The cells were cultured at 37° C., 5% CO2, and 95% humidity for another 3 days. After that, cell proliferation was estimated by the MTS assay. […] Normal human IgG was also added to different groups in such a way that all groups contained the same amounts of IgG protein.
A 96-well plate was coated with human fibronectin (10 μg/mL) for 5 hours. HREC were collected from flasks by EDTA-trypsin treatment and re-suspended in 10% FBS CS-C medium at 15,000 cells/mL. Cells (200 μL) were added to the plate and cultured overnight at 37° C., 5% CO2, and 95% humidity. Next day, the medium was removed and 200 μl/well serum free medium was added.
All medium solutions were incubated for 1 h at 37° C. After carefully aspirating the medium from cells, […], of the medium containing the different agents was added into appropriate wells. The cells were cultured for another 3 days.
At the end of incubation, the medium was carefully aspirated from cells and 120 μl of MTS working solution was added into all wells including blank wells (without cells). The plate was incubated at 37° C., 5% CO2, and 95% humidity for 1 hour and then absorbance was read by a plate reader at 490 nm wavelength.
Median optical density (OD) was generated from different groups. Data were expressed as mean±SEM of the OD values. Statistical analysis was performed using a one or two-way ANOVA using Box-Cox transformed data if needed, and P<0.05 was considered statistically significant. […] All the data from the individual wells were fitted to a re-parameterized four-parameter logistic equation to obtain IC50 using similar methodology as that previously described and utilizing the statistical analysis software JMP (SAS Institute, Cary, N.C.).

The mark [6] stands for this setting: Day 14, 200 μg/eye intravitreal.
Where [7] appears, read: one intravitreal injection after laser.

In the case of `COc1ccc(CCOC(=O)N[C@@H](CNc2nc(C)nc(N3CCC(c4ccc5c(n4)NCCC5)CC3)c2C)C(=O)O)cc1` [BOL-303049-X], the “Inhibition of PMA-induced HREC network formation in fibrin gel” value (from here on “Inhibition … in fibrin gel”) in series [1] (1 nM) is given as “significantly inhibited”. Moreover, the “Inhibition … in fibrin gel” value in series [1] (10 nM) was “significantly inhibited”. For the same compound, in series [2], the “Number of lesions in FA grade 1” value came out at 0, the “Number of lesions in FA grade 2” value came out at 0, the “Number of lesions in FA grade 3” value is reported as 0 and the “Number of lesions in FA grade 4” value stood at 0. Further, the “Combination effect with Lucentis on VEGF-induced HREC proliferation (synergistic/additive)” value in series [3] is reported as “synergistic effect”. For the same compound, in series [4] (setting [6]), the “Eyes with anterior chamber inflammation/Total eyes” value is on record as 6/6, the “Eyes with retinal vascular congestion/vessel-observable eyes” value is 1/1 and the “Posterior synechiae of iris” value was “Posterior synechiae of iris occurred in several eyes”. For the same compound, in series [4], the “Intraocular inflammation and retinal vascular congestion” value is reported as “most severe inflammation”.

In the case of `Cc1nc(NC[C@H](NC(=O)OCC2CCCCC2)C(=O)O)c(C)c(N2CCC(c3ccc4c(n3)NCCC4)CC2)n1` [BOL-303051-X], in series [1] (1 nM), the “Inhibition … in fibrin gel” value is given as “significantly inhibited”. For the same compound, in series [1] (10 nM), the “Inhibition … in fibrin gel” value is on record as “significantly inhibited”. The “Mean score of fluorescein leakage (FA score) compared to vehicle-treated controls” value in series [2] (setting [7]) is “smaller means”. In series [2], the “Number of lesions in FA grade 1” value was determined as 2, the “Number of lesions in FA grade 2” value is reported as 3, the “Number of lesions in FA grade 3” value was found to be 9 and the “Number of lesions in FA grade 4” value was 10. In addition, the “Combination effect with Lucentis on VEGF-induced HREC proliferation (synergistic/additive)” value in series [3] is given as “additive effects”. Moreover, in series [4] (setting [6]), the “Eyes with anterior chamber inflammation/Total eyes” value is given as 3/6 and the “Eyes with retinal vascular congestion/vessel-observable eyes” value is recorded as 0/4.

For the compound `CC1(C)O[C@@H]2C[C@H]3[C@@H]4CCC5=CC(=O)C=C[C@]5(C)[C@@]4(F)[C@@H](O)C[C@]3(C)[C@]2(C(=O)CO)O1` [TA, triamcinolone acetonide, reference compound], in series [2], the “Number of lesions in FA grade 1” value is on record as 3, the “Number of lesions in FA grade 2” value is 11, the “Number of lesions in FA grade 3” value was 4 and the “Number of lesions in FA grade 4” value came out at 0. In series [4], the “Intraocular inflammation and retinal vascular congestion” value is “no intraocular inflammation and retinal vascular congestion was recorded”.

With Echistatin [reference compound], the “Inhibition … in fibrin gel” value in series [1] (10 nM) was “significantly inhibited”. In series [2] (setting [7]), the “CNV area / development of CNV on isolectin IB4-labeled flat mounts compared to vehicle-treated controls” value was “smaller area of CNV” and the “Mean score of fluorescein leakage (FA score) compared to vehicle-treated controls” value is on record as “smaller means”. For the same compound, in series [2], the “Number of lesions in FA grade 1” value turned out to be 0, the “Number of lesions in FA grade 2” value is on record as 12, the “Number of lesions in FA grade 3” value is 3 and the “Number of lesions in FA grade 4” value was found to be 2. Further, the “Enhancement of Avastin potency” value in series [5] is given as “approximately 1.6 fold”. Besides, the “Inhibition of VEGF-induced HREC proliferation, agent alone” value in series [5] (Avastin 0.625-10 ng/ml (significant at 10 ng/ml), VEGF 10 ng/mL) was “not statistically significant”. Further, the “HREC proliferation under basal conditions” value in series [5] (Avastin 0.625-10 ng/ml, no VEGF) is recorded as “significantly inhibited”. For the same compound, in series [5] (Avastin 0.625 to 10 ng/ml), the “Combination effect with Avastin on VEGF-induced HREC proliferation (synergistic/additive)” value is “additive effects”. In addition, the “Cataract formation” value in series [4] (Day 14, echistatin 5 μg/eye intravitreal) is recorded as “Two eyes treated with echistatin developed cataract”. Further, in series [4], the “Intraocular inflammation and retinal vascular congestion” value is “no intraocular inflammation and retinal vascular congestion was recorded”.
